Patent US9539252B2, “Piperazine-substituted benzothiophene derivatives as antipsychotic agents” (OTSUKA PHARMACEUTICAL CO., LTD., priority 2011, dated 2017)

Assay: physchem
Conditions: oil or lipid, thermodynamic from solid
Procedure: (§1) Each of the Example compounds was examined for the solubility in oil (sesame oil, benzyl benzoate).
(§2) For the specific gravity of an oil, the following values were applied. • sesame oil (specific gravity: 0.914-0.921) • benzyl benzoate (specific gravity: 1.123) • (Method)
(§3) Example compound is measured in a microtube and an oil (sesame oil, or, benzyl benzoate) in an amount to make the concentration 10 mg/0.1 ml is added. After stirring, the solubility is evaluated by visual observation. When the compound is not dissolved, the mixture is heated, and the solubility is evaluated after cooling.

Compound | solubility [mg/mL]
O=C(Cc1ccccc1)OCn1c(=O)ccc2ccc(OCCCCN3CCN(c4cccc5sccc45)CC3)cc21 [Example 26, phenylacetic acid 7-[4-(4-benzo[b]thiophen-4-ylpiperazin-1-yl)butoxy]-2-oxo-2H-quinolin-1-ylmethyl ester] | > 100
O=C(Cc1ccccc1)OCN1C(=O)CCc2ccc(OCCCCN3CCN(c4cccc5sccc45)CC3)cc21 [Example 25, phenylacetic acid 7-[4-(4-benzo[b]thiophen-4-ylpiperazin-1-yl)butoxy]-2-oxo-3,4-dihydro-2H-quinolin-1-ylmethyl ester] | > 100

Assay: Solubility in oil (sesame oil, benzyl benzoate), visual observation
Conditions: benzyl benzoate, oil or lipid, thermodynamic from solid
Procedure: as §1, §2, §3

Compound | solubility [mg/mL]
CC(=O)OCN1C(=O)CCc2ccc(OCCCCN3CCN(c4cccc5sccc45)CC3)cc21 [Example 85, acetic acid 7-[4-(4-benzo[b]thiophen-4-ylpiperazin-1-yl)butoxy]-2-oxo-3,4-dihydro-2H-quinolin-1-ylmethyl ester] | > 100
CNC(=O)OCn1c(=O)ccc2ccc(OCCCCN3CCN(c4cccc5sccc45)CC3)cc21 [Example 53, N-methylcarbamic acid 7-[4-(4-benzo[b]thiophen-4-ylpiperazin-1-yl)butoxy]-2-oxo-2H-quinolin-1-ylmethyl ester] | > 100
CCCCCCCCCCCCCCCNC(=O)OCn1c(=O)ccc2ccc(OCCCCN3CCN(c4cccc5sccc45)CC3)cc21 [Example 43, N-pentadecylcarbamic acid 7-[4-(4-benzo[b]thiophen-4-ylpiperazin-1-yl)butoxy]-2-oxo-2H-quinolin-1-ylmethyl ester] | > 100
CC(C)(C)OC(=O)CC(=O)OCN1C(=O)CCc2ccc(OCCCCN3CCN(c4cccc5sccc45)CC3)cc21 [Example 121, malonic acid 7-[4-(4-benzo[b]thiophen-4-ylpiperazin-1-yl)butoxy]-2-oxo-3,4-dihydro-2H-quinolin-1-ylmethyl ester tert-butyl ester] | > 100
CCCCCCCOC(=O)OCN1C(=O)CCc2ccc(OCCCCN3CCN(c4cccc5sccc45)CC3)cc21 [Example 145, carbonic acid 7-[4-(4-benzo[b]thiophen-4-ylpiperazin-1-yl)butoxy]-2-oxo-3,4-dihydro-2H-quinolin-1-ylmethyl ester heptyl ester] | > 100
CCCCCCCCCCOC(=O)OCN1C(=O)CCc2ccc(OCCCCN3CCN(c4cccc5sccc45)CC3)cc21 [Example 142, carbonic acid 7-[4-(4-benzo[b]thiophen-4-ylpiperazin-1-yl)butoxy]-2-oxo-3,4-dihydro-2H-quinolin-1-ylmethyl ester decyl ester] | > 100

Same assay, conditions: sesame oil, oil or lipid, thermodynamic from solid

Compound | solubility [mg/mL]
CCCCCCCCCCOC(=O)OCN1C(=O)CCc2ccc(OCCCCN3CCN(c4cccc5sccc45)CC3)cc21 [Example 142, carbonic acid 7-[4-(4-benzo[b]thiophen-4-ylpiperazin-1-yl)butoxy]-2-oxo-3,4-dihydro-2H-quinolin-1-ylmethyl ester decyl ester] | > 100
